From ChEMBL document CHEMBL1153309, “Synthesis and biological evaluation of platensimycin analogs” (Bioorg Med Chem Lett, 2009)
In brackets after ≈: the same amount, converted by molar mass.

Tests used:
Staphylococcus aureus [1] = test: Antimicrobial activity against wild type Staphylococcus aureus; assay type: functional
[2] = molecular target: T1, 3-oxoacyl-[acyl-carrier-protein] synthase 2 (Staphylococcus aureus, UniProt Q5TKS0); test: Inhibition of FabF-mediated type 2 fatty acid synthesis in Staphylococcus aureus by cell free assay
T1 sequence (Q5TKS0 whole entry): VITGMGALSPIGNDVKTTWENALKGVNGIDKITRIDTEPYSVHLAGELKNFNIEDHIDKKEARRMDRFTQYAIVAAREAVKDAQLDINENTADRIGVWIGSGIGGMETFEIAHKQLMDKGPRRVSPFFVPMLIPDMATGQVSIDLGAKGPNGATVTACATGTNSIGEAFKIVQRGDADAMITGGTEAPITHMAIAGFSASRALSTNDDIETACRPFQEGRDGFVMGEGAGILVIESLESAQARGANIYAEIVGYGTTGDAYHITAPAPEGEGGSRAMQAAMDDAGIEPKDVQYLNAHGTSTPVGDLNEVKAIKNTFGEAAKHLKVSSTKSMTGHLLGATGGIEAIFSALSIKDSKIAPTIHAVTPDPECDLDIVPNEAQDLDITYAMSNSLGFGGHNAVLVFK

Staphylococcus aureus [3] = test: Antibacterial activity against antisense fabH/fabF sensitized Staphylococcus aureus assessed as minimum concentration required to show differential zone of fabF antisense strain clearance by two plate differential sensitivity assay; assay type: functional

Row | MIC (Staphylococcus aureus [1]) [µg/mL] | IC50 [2] [µM] | Structure (SMILES) | Activity (Staphylococcus aureus [3]) [µg/mL]
1 | > 64 | 156 | Cn1ncc2c1[C@@](C)(CCC(=O)Nc1c(O)ccc(C(=O)O)c1O)C1C3CC4CC1(C2)CC4(C)O3 (stereo not given in full) | >2.7
2 | > 64 | > 436 | CN1CC23CC4CC(OC4(C)C2)C3[C@](C)(CCC(=O)Nc2c(O)ccc(C(=O)O)c2O)C1=O (stereo not given in full) | >2.7
3 | 1 (≈ 2.2 µM) | 20.9 | CC12CC34CC1CC(O2)C3[C@](C)(CCC(=O)Nc1c(O)ccc(C(=O)O)c1O)C(=O)[C@@H]1C[C@@H]14 (stereo not given in full) | 0.1
4 | 16 (≈ 34.2 µM) | 22.4 | CC12CC34Cc5cnoc5[C@@](C)(CCC(=O)Nc5c(O)ccc(C(=O)O)c5O)C3C(CC1C4)O2 (stereo not given in full) | 0.3

The next lines start with the compound.

Row | Structure (SMILES) | MIC (Staphylococcus aureus [1]) [µg/mL] | IC50 [2] [µM] | Activity (Staphylococcus aureus [3]) [µg/mL]
5 | CC12CC34COC(=O)[C@@](C)(CCC(=O)Nc5c(O)ccc(C(=O)O)c5O)C3C(CC1C4)O2 (stereo not given in full) | > 64 | 165 | >2.7
6 | CC12CC34CC1CC(O2)C3[C@](C)(CCC(=O)Nc1c(O)ccc(C(=O)O)c1O)C(=O)CC4c1ccccc1 (stereo not given in full) [PHENYL DIHYDROPLATENSIMYCIN] | 4 (≈ 7.7 µM) | 7.7 | <20
7 | CC12C[C@@]34C=CC(=O)[C@@](C)(CCC(=O)Nc5c(O)ccc(C(=O)O)c5O)C3[C@H](CC1C4)O2 (stereo not given in full) [PLATENSIMYCIN] | 0.5 (≈ 1.13 µM) | 1.13 | 0.01
8 | CC1=CC(=O)[C@@](C)(CCC(=O)Nc2c(O)ccc(C(=O)O)c2O)C2C3CC4CC12CC4(C)O3 (stereo not given in full) | 4 (≈ 8.78 µM) | 5.27 | 0.03
9 | CC1CC(=O)[C@@](C)(CCC(=O)Nc2c(O)ccc(C(=O)O)c2O)C2C3CC4CC12CC4(C)O3 (stereo not given in full) | 4 (≈ 8.74 µM) | 28.4 | <20
10 | CC12CC34CCC(=O)[C@@](C)(CCC(=O)Nc5c(O)ccc(C(=O)O)c5O)C3C(CC1C4)O2 (stereo not given in full) [DIHYDROPLATENSIMYCIN] | 2 (≈ 4.51 µM) | 4.51 | 0.4
